What was measured:
THP-1 cells = assay: TNFα generation assay; assay type: cell-based, human; conditions: Homo sapiens, THP-1, THP-1 cells; Table 22; read-out: IC50 in TNFα generation assay
Method in brief: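 THP-1 cells differentiated to macrophage-like cells with 10 ng/ml IFN-γ for 2 days, preincubated with compound 30 min at room temperature, then cultured 7 h on plates coated with human IgG (10 μg/ml). Secreted TNFα measured by ELISA or AlphaLISA.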

[1] = target: T1, glutathione S-transferase (GST)-fused full-length human Syk protein (Homo sapiens, UniProt P43405); assay: Syk enzyme assay; assay type: biochemical; conditions: Syk enzyme assay, Test Example 1; read-out: IC50 of Syk-inhibitory activity
T1 construct: (GST)-fused full-length human Syk protein; GST (glutathione S-transferase); purchased Carna Biosciences
Method in brief: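 IC50 values come from a time-resolved FRET readout (615 and 665 nm) of substrate phosphorylation, measured after an EDTA stop and 1 h antibody binding. The kinase reaction ran 40 min at room temperature with 27 μM ATP and 0.4 μM biotin-peptide, following a 15 min compound preincubation with baculovirus-made GST-full-length human Syk.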

In the case of NC(=O)c1cc(F)c(NC2CCCCC2N)nc1Nc1ccnc(N2CCOCC2)c1F (centres unmarked) [Example 002-165], the IC50 (THP-1 cells) is reported as 65 to 130 nM and the IC50 [1] is reported as 10 to 50 nM.
NC(=O)c1cc(F)c(NC2CCCCC2N)nc1Nc1cnnc(-c2ccccc2)c1 (centres unmarked) [Example 002-169] was tested, and the IC50 (THP-1 cells) was 130 to 200 nM and the IC50 [1] was 10 to 50 nM.
Compound COc1ccc(-c2cncc(Nc3nc(NC4CCCCC4N)c(F)cc3C(N)=O)c2)cc1OC (centres unmarked) [Example 002-170] has an IC50 (THP-1 cells) of 65 to 130 nM and an IC50 [1] of 10 to 50 nM.
NC(=O)c1cc(F)c(NC2CCCCC2N)nc1Nc1cncc(-c2ccc([N+](=O)[O-])cc2)c1 (centres unmarked) [Example 002-172] showed an IC50 (THP-1 cells) of 130 to 200 nM and an IC50 [1] of 10 to 50 nM.
For N#Cc1ccc(-c2cncc(Nc3nc(NC4CCCCC4N)c(F)cc3C(N)=O)c2)cc1 (centres unmarked) [Example 002-173], the IC50 (THP-1 cells) was 130 to 200 nM and the IC50 [1] was 10 to 50 nM.
For NC(=O)c1cc(F)c(NC2CCCCC2N)nc1Nc1cncc(-c2ccc3c(c2)OCO3)c1 (centres unmarked) [Example 002-175], the IC50 (THP-1 cells) was less than 65 nM and the IC50 [1] was less than 10 nM.
CCn1ncc2ccc(Nc3nc(NC4CCCCC4N)c(F)cc3C(N)=O)cc21 (centres unmarked) [Example 002-185] was tested, and the IC50 (THP-1 cells) was less than 65 nM and the IC50 [1] was less than 10 nM.
With CCn1ncc2c(Nc3nc(NC4CCCCC4N)c(F)cc3C(N)=O)cccc21 (centres unmarked) [Example 002-186] the IC50 (THP-1 cells) was 65 to 130 nM and the IC50 [1] was less than 10 nM.
Compound NC(=O)c1cc(F)c(NC2CCCCC2N)nc1Nc1ccc2c(cnn2CC(F)F)c1 (centres unmarked) [Example 002-187] has an IC50 (THP-1 cells) of less than 65 nM and an IC50 [1] of less than 10 nM.
NC(=O)c1cc(F)c(NC2CCCCC2N)nc1Nc1ccc2cnn(CC(F)F)c2c1 (centres unmarked) [Example 002-188] gave an IC50 (THP-1 cells) of 65 to 130 nM and an IC50 [1] of less than 10 nM.
Work on NC(=O)c1cc(F)c(NC2CCCCC2N)nc1Nc1cncc(-c2ccc3cccnc3c2)c1 (centres unmarked) [Example 002-189] yielded an IC50 (THP-1 cells) of 65 to 130 nM and an IC50 [1] of less than 10 nM.
In the case of NC(=O)c1cc(F)c(NC2CCCCC2N)nc1Nc1cncc(-c2ccc3cnccc3c2)c1 (centres unmarked) [Example 002-190], the IC50 (THP-1 cells) is reported as 130 to 200 nM and the IC50 [1] is reported as less than 10 nM.
NC(=O)c1cc(F)c(NC2CCCCC2N)nc1Nc1cncc(-c2ccc3ccncc3c2)c1 (centres unmarked) [Example 002-191] showed an IC50 (THP-1 cells) of 65 to 130 nM and an IC50 [1] of less than 10 nM.
NC(=O)c1cc(F)c(NC2CCCCC2N)nc1Nc1ccnc(-c2ccc3cnccc3c2)c1 (centres unmarked) [Example 002-193] was tested, and the IC50 (THP-1 cells) was 130 to 200 nM and the IC50 [1] was less than 10 nM.
For Cn1nc(F)c2cc(Nc3nc(NC4CCCCC4N)c(F)cc3C(N)=O)ccc21 (centres unmarked) [Example 002-196], the IC50 (THP-1 cells) was 65 to 130 nM and the IC50 [1] was less than 10 nM.
CCn1nc(F)c2cc(Nc3nc(NC4CCCCC4N)c(F)cc3C(N)=O)ccc21 (centres unmarked) [Example 002-197] showed an IC50 (THP-1 cells) of 130 to 200 nM and an IC50 [1] of less than 10 nM.
For Cn1nc(F)c2ccc(Nc3nc(NC4CCCCC4N)c(F)cc3C(N)=O)cc21 (centres unmarked) [Example 002-198], the IC50 (THP-1 cells) was 65 to 130 nM and the IC50 [1] was less than 10 nM.
Compound CCn1nc(F)c2ccc(Nc3nc(NC4CCCCC4N)c(F)cc3C(N)=O)cc21 (centres unmarked) [Example 002-199] has an IC50 (THP-1 cells) of 130 to 200 nM and an IC50 [1] of less than 10 nM.
NC(=O)c1cc(F)c(NC2CCCCC2N)nc1Nc1ccc2c(cnn2CCF)c1 (centres unmarked) [Example 002-200] gave an IC50 (THP-1 cells) of less than 65 nM and an IC50 [1] of less than 10 nM.
NC(=O)c1cc(F)c(NC2CCCCC2N)nc1Nc1ccc2cnn(CCF)c2c1 (centres unmarked) [Example 002-201] showed an IC50 (THP-1 cells) of 65 to 130 nM and an IC50 [1] of less than 10 nM.
NC(=O)c1cc(F)c(NC2CCCCC2N)nc1Nc1ccc2c(c1)c(F)nn2CCF (centres unmarked) [Example 002-204] gave an IC50 (THP-1 cells) of 65 to 130 nM and an IC50 [1] of less than 10 nM.
Work on NC(=O)c1cc(F)c(NC2CCCCC2N)nc1Nc1ccc2c(F)nn(CCF)c2c1 (centres unmarked) [Example 002-205] yielded an IC50 (THP-1 cells) of 65 to 130 nM and an IC50 [1] of less than 10 nM.
In the case of Cc1nn(C)c2ccc(Nc3nc(NC4CCCCC4N)c(F)cc3C(N)=O)cc12 (centres unmarked) [Example 002-206], the IC50 (THP-1 cells) is reported as less than 65 nM and the IC50 [1] is reported as less than 10 nM.
For CCn1nc(C)c2cc(Nc3nc(NC4CCCCC4N)c(F)cc3C(N)=O)ccc21 (centres unmarked) [Example 002-207], the IC50 (THP-1 cells) was 65 to 130 nM and the IC50 [1] was less than 10 nM.
For COCCn1nc(C)c2cc(Nc3nc(NC4CCCCC4N)c(F)cc3C(N)=O)ccc21 (centres unmarked) [Example 002-208], the IC50 (THP-1 cells) was 65 to 130 nM and the IC50 [1] was less than 10 nM.
With Cc1nn(CCF)c2ccc(Nc3nc(NC4CCCCC4N)c(F)cc3C(N)=O)cc12 (centres unmarked) [Example 002-209] the IC50 (THP-1 cells) was 65 to 130 nM and the IC50 [1] was less than 10 nM.
Compound Cc1nn(CC(F)F)c2ccc(Nc3nc(NC4CCCCC4N)c(F)cc3C(N)=O)cc12 (centres unmarked) [Example 002-210] has an IC50 (THP-1 cells) of 65 to 130 nM and an IC50 [1] of less than 10 nM.
With NC(=O)c1cc(F)c(N[C@@H]2CCCC[C@@H]2N)nc1Nc1cnc2cccnc2c1 [Example 004-002] the IC50 (THP-1 cells) was less than 65 nM and the IC50 [1] was 10 to 50 nM.
In the case of NC(=O)c1cc(F)c(N[C@@H]2CCCC[C@@H]2N)nc1Nc1cnc2ccncc2c1 [Example 004-003], the IC50 (THP-1 cells) is reported as less than 65 nM and the IC50 [1] is reported as 10 to 50 nM.
NC(=O)c1cc(F)c(N[C@@H]2CCCC[C@@H]2N)nc1Nc1cncc2cccnc12 [Example 004-004] gave an IC50 (THP-1 cells) of 65 to 130 nM and an IC50 [1] of 10 to 50 nM.
NC(=O)c1cc(F)c(N[C@@H]2CCCC[C@@H]2N)nc1Nc1cnc2c([N+](=O)[O-])cccc2c1 [Example 004-005] gave an IC50 (THP-1 cells) of 65 to 130 nM and an IC50 [1] of less than 10 nM.
Cn1ccc2c(Nc3nc(N[C@@H]4CCCC[C@@H]4N)c(F)cc3C(N)=O)cncc21 [Example 004-006] gave an IC50 (THP-1 cells) of 65 to 130 nM and an IC50 [1] of less than 10 nM.
In the case of NC(=O)c1cc(F)c(N[C@@H]2CCCC[C@@H]2N)nc1Nc1cncc2c1ccn2CCN1CCCC1 [Example 004-007], the IC50 (THP-1 cells) is reported as 65 to 130 nM and the IC50 [1] is reported as less than 10 nM.
With NC(=O)c1cc(F)c(N[C@@H]2CCCC[C@@H]2N)nc1Nc1cncc(C(=O)Nc2ccccc2)c1 [Example 004-011] the IC50 (THP-1 cells) was 130 to 200 nM and the IC50 [1] was 10 to 50 nM.
In the case of Cn1ccc2cc(Nc3nc(N[C@@H]4CCCC[C@@H]4N)c(F)cc3C(N)=O)cnc21 [Example 004-012], the IC50 (THP-1 cells) is reported as less than 65 nM and the IC50 [1] is reported as less than 10 nM.
In the case of NC(=O)c1cc(F)c(N[C@@H]2CCCC[C@@H]2N)nc1Nc1ccc2nc(-c3ccccc3)cn2c1 [Example 004-014], the IC50 (THP-1 cells) is reported as 130 to 200 nM and the IC50 [1] is reported as less than 10 nM.
Compound COC(=O)c1cncc(Nc2nc(N[C@@H]3CCCC[C@@H]3N)c(F)cc2C(N)=O)c1 [Example 004-016] has an IC50 (THP-1 cells) of 65 to 130 nM and an IC50 [1] of less than 10 nM.
In the case of Cc1cc(Nc2nc(N[C@@H]3CCCC[C@@H]3N)c(F)cc2C(N)=O)ccn1 [Example 004-018], the IC50 (THP-1 cells) is reported as 65 to 130 nM and the IC50 [1] is reported as 10 to 50 nM.
Cc1ccncc1Nc1nc(N[C@@H]2CCCC[C@@H]2N)c(F)cc1C(N)=O [Example 004-019] showed an IC50 (THP-1 cells) of 130 to 200 nM and an IC50 [1] of 10 to 50 nM.
In the case of NC(=O)c1cc(F)c(N[C@@H]2CCCC[C@@H]2N)nc1Nc1cncc2c1cnn2-c1ccccc1 [Example 004-020], the IC50 (THP-1 cells) is reported as 130 to 200 nM and the IC50 [1] is reported as less than 10 nM.
With NC(=O)c1cc(F)c(N[C@@H]2CCCC[C@@H]2N)nc1Nc1cnc2c(ccn2CCN2CCCC2)c1 [Example 004-022] the IC50 (THP-1 cells) was 65 to 130 nM and the IC50 [1] was 10 to 50 nM.
Work on NC(=O)c1cc(F)c(N[C@@H]2CCCC[C@@H]2N)nc1Nc1cnc2c(ccn2CCN2CCOCC2)c1 [Example 004-024] yielded an IC50 (THP-1 cells) of 130 to 200 nM and an IC50 [1] of 50 to 100 nM.
For NC(=O)c1cc(F)c(N[C@@H]2CCCC[C@@H]2N)nc1Nc1ccnc2c1ccn2CCN1CCOCC1 [Example 004-025], the IC50 (THP-1 cells) was less than 65 nM and the IC50 [1] was less than 10 nM.
With NC(=O)c1cc(F)c(N[C@@H]2CCCC[C@@H]2N)nc1Nc1cnc2ncsc2c1 [Example 004-026] the IC50 (THP-1 cells) was less than 65 nM and the IC50 [1] was less than 10 nM.
With Cn1cnc2cc(Nc3nc(N[C@@H]4CCCC[C@@H]4N)c(F)cc3C(N)=O)cnc21 [Example 004-027] the IC50 (THP-1 cells) was 130 to 200 nM and the IC50 [1] was 10 to 50 nM.
With CCN(CC)CCn1ccc2c(Nc3nc(N[C@@H]4CCCC[C@@H]4N)c(F)cc3C(N)=O)ccnc21 [Example 004-028] the IC50 (THP-1 cells) was 65 to 130 nM and the IC50 [1] was less than 10 nM.

Reference: patent publication US8895585B2, “Nicotinamide derivative or salt thereof” (FUJIFILM Corporation, priority 2010, dated 2014)
